In patent US8536168B2 (Novartis AG, priority 2007, dated 2013) one finds IC50 data, which are given here for 30 compounds.

In one assay the test system is Gli-luciferase activity. In words: Reporter gene assay (RGA) in TMHh12 cells, antagonism of Gli-luciferase activity in the presence of a Smo agonist. It counts as cell-based. How it is done:
Activity of the compounds was evaluated using a reporter gene assay (RGA) in TMHh12 cells.
For orientation: A reporter such as luciferase makes a cellular process visible.

Assay [1] has as its target human Smoothened receptor (Homo sapiens, UniProt Q99835). Put plainly: Smo binding assay, displacement of radio-labeled smoothened agonist, filter binding format (human). As to conditions: displacement of small molecule agonist of Smoothened, read-out: Human Smo bdg., IC50. An excerpt: A Smo binding assay was developed using radio-labeled smoothened agonist for compound competition. Table 9 lists the IC50 for displacement of a small molecule agonist of Smoothened determined in a filter binding format for the mouse and human Smoothened receptor.

Assay [2] deals with mouse Smoothened receptor (Mus musculus, UniProt P56726). In words: Smo binding assay, displacement of radio-labeled smoothened agonist, filter binding format (mouse). As to conditions: displacement of small molecule agonist of Smoothened, read-out: Mouse Smo bdg., IC50. An excerpt: A Smo binding assay was developed using radio-labeled smoothened agonist for compound competition.

Setting [3] is: 25 nM small molecule Smo agonist, read-out: RGA (25 nM Smo agonist) IC50.
Setting [4] is: read-out: RGA (1 nM Smo agonist) IC50, 1 nM small molecule Smo agonist.

Where two headings read alike, the source gives them in different places.

Sequence of mouse Smoothened receptor (P56726 33-793): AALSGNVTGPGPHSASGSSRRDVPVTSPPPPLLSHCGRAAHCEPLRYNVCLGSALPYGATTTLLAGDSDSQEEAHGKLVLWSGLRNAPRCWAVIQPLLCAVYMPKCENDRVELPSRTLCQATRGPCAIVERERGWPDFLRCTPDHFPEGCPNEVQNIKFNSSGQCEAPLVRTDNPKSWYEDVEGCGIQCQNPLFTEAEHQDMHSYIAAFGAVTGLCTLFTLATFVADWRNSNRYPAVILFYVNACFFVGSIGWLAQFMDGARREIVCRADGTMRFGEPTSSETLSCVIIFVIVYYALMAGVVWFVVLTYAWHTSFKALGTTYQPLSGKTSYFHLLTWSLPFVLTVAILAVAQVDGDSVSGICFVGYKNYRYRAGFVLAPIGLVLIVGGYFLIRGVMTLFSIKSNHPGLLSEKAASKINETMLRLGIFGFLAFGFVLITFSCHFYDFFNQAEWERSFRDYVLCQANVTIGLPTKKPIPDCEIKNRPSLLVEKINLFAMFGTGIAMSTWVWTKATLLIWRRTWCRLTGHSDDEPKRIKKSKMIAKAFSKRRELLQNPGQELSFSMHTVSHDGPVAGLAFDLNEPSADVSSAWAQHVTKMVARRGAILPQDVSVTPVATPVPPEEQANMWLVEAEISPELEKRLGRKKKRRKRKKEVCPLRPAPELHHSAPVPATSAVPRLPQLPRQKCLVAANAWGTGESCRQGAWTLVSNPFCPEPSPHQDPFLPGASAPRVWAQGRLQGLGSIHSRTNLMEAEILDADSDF
Sequence of human Smoothened receptor (Q99835 28-787): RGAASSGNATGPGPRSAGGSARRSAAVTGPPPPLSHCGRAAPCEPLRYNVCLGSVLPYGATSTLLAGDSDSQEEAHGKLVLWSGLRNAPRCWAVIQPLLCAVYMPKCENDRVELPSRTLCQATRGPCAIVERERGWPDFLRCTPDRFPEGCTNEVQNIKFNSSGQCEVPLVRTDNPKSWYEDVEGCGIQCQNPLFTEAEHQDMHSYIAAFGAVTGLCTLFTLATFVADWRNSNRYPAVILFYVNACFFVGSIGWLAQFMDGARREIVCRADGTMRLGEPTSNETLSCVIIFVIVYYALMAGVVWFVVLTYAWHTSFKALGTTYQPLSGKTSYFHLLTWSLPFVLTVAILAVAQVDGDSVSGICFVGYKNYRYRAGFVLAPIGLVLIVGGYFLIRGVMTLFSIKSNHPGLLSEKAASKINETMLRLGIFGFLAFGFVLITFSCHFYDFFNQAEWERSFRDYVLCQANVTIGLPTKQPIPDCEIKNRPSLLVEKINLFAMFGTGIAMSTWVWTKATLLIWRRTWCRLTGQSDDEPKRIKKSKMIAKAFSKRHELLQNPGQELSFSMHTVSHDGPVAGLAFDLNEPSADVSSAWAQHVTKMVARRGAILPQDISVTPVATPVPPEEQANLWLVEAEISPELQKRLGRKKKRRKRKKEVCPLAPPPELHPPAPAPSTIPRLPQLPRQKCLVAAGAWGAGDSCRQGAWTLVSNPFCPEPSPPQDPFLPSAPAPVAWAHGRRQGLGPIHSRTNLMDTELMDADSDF

For the compound `C[C@@H]1CN(c2nnc(Cc3ccccc3)c3ccccc23)CCN1c1ccc(C(C)(C)O)cn1` [Example 154], the IC50 (with Gli-luciferase activity (setting [3]); in the assay on Gli-luciferase activity (setting [4]); in assay [1]; in assay [2]) was below 100 nM in each case.
On to `C[C@H]1CN(c2ccc(C(C)(C)O)cn2)CCN1c1nnc(Cc2ccccc2)c2ccccc12` [Example 155], for which the IC50 (in the assay on Gli-luciferase activity (setting [3]); in the assay on Gli-luciferase activity (setting [4]); in assay [1]; in assay [2]) was below 100 nM throughout.
`C[C@@H]1CN(c2nnc(Cc3ccccc3)c3ccccc23)CCN1c1cnc(C(C)(C)O)cn1` [Example 156]: the IC50 (in the assay with Gli-luciferase activity (setting [3]); with Gli-luciferase activity (setting [4]); in assay [1]; in assay [2]) was below 100 nM each time.
Turning to `CC(=O)c1cnc(N2CCN(c3nnc(Cc4ccccc4)c4ccccc34)C[C@H]2C)cn1` [Example 157], the IC50 (with Gli-luciferase activity (setting [3]); in the assay on Gli-luciferase activity (setting [4]); in assay [1]; in assay [2]) was below 100 nM in each case.
As to `COCC(=O)OCc1ccc(N2CCN(c3nnc(Cc4ccccc4)c4ccccc34)CC2)nc1` [Example 159, Methoxy-acetic acid 6-[4-(4-benzyl-phthalazin-1-yl)-piperazin-1-yl]-pyridin-3-ylmethyl ester], the IC50 in the assay with Gli-luciferase activity (setting [3]) lay within 1000 to 10000 nM; in the assay on Gli-luciferase activity (setting [4]) it was 100 to 1000 nM; in assay [1], 100 to 1000 nM; in assay [2], 100 to 1000 nM.
Turning to `CN(C)C(=O)OCc1ccc(N2CCN(c3nnc(Cc4ccccc4)c4ccccc34)CC2)nc1` [Example 160, Dimethyl-carbamic acid 6-[4-(4-benzyl-phthalazin-1-yl)-piperazin-1-yl]-pyridin-3-ylmethyl ester], the IC50 with Gli-luciferase activity (setting [3]) was 100 to 1000 nM; in the assay on Gli-luciferase activity (setting [4]) it was below 100 nM; in assay [1], 100 to 1000 nM; in assay [2] it was 100 to 1000 nM.
Regarding `COC(C)(C)c1ccc(N2CCN(c3nnc(Cc4ccccc4)c4ccccc34)CC2)nc1` [Example 161, 1-Benzyl-4-{-4-[5-(1-methoxy-1-methyl-ethyl)-pyridin-2-yl]-piperazin-1-yl}-phthalazine], the IC50 (with Gli-luciferase activity (setting [3]); in the assay on Gli-luciferase activity (setting [4]); in assay [1]; in assay [2]) was below 100 nM in each case.
Take `CC(=O)NC(C)(C)c1ccc(N2CCN(c3nnc(Cc4ccccc4)c4ccccc34)CC2)nc1` [Example 162, N-(1-{6-[4-(4-Benzyl-phthalazin-1-yl)-piperazin-1-yl]-pyridin-3-yl}-1-methyl-ethyl)-acetamide]: the concentration for half-maximal inhibition (IC50) (in the assay with Gli-luciferase activity (setting [3]); in the assay on Gli-luciferase activity (setting [4]); in assay [1]; in assay [2]) was below 100 nM throughout.
As to `CC(O)c1ccc(N2CCN(c3nnc(Cc4ccccc4)c4ccccc34)CC2)nc1` (stereo not drawn) [Example 163, 1-{6-[4-(4-Benzyl-phthalazin-1-yl)-piperazin-1-yl]-pyridin-3-yl}-ethanol], the IC50 in the assay with Gli-luciferase activity (setting [3]) was 100 to 1000 nM; in the assay with Gli-luciferase activity (setting [4]), below 100 nM; in assay [1] it was below 100 nM; in assay [2], below 100 nM.
On to `CC1(c2ccc(N3CCN(c4nnc(Cc5ccccc5)c5ccccc45)CC3)nc2)OCCO1` [Example 164, 1-Benzyl-4-(4-(5-(2-methyl-1,3-dioxolan-2-yl)pyridin-2-yl)piperazin-1-yl)phthalazine], for which the IC50 (in the assay on Gli-luciferase activity (setting [3]); with Gli-luciferase activity (setting [4]); in assay [1]; in assay [2]) was below 100 nM throughout.
For `CC(C)c1cnc(N2CCN(c3nnc(Cc4ccccc4)c4ccccc34)CC2)cn1` [Example 165, 4-(4-Benzyl-phthalazin-1-yl)-5′-isopropyl-3,4,5,6-tetrahydro-2H-[1,2′]bipyrazinyl], the IC50 (in the assay with Gli-luciferase activity (setting [3]); in the assay with Gli-luciferase activity (setting [4]); in assay [1]; in assay [2]) was below 100 nM each time.
As for `CC(O)(CO)c1cnc(N2CCN(c3nnc(Cc4ccccc4)c4ccccc34)CC2)cn1` (stereo not drawn) [Example 166, 2-[4-(4-Benzyl-phthalazin-1-yl)-3,4,5,6-tetrahydro-2H-[1,2′]bipyrazinyl-5′-yl]-propane-1,2-diol], the IC50 with Gli-luciferase activity (setting [3]) was 100 to 1000 nM; with Gli-luciferase activity (setting [4]), below 100 nM; in assay [1], below 100 nM; in assay [2] it was below 100 nM.
For `CC(O)(CO)c1ccc(N2CCN(c3nnc(Cc4ccccc4)c4ccccc34)CC2)nc1` (stereo not drawn) [Example 167, 2-{6-[4-(4-Benzyl-phthalazin-1-yl)-piperazin-1-yl]-pyridin-3-yl}-propane-1,2-diol], the IC50 in the assay with Gli-luciferase activity (setting [3]) is 100 to 1000 nM; in the assay on Gli-luciferase activity (setting [4]), below 100 nM; in assay [1] it was below 100 nM; in assay [2] it was below 100 nM.
`CN(C)CC(C)(O)c1cnc(N2CCN(c3nnc(Cc4ccccc4)c4ccccc34)CC2)cn1` (stereo not drawn) [Example 169, 2-[4-(4-Benzyl-phthalazin-1-yl)-3,4,5,6-tetrahydro-2H-[1,2′]bipyrazinyl-5′-yl]-1-dimethylamino-propan-2-ol]: the 50% inhibitory concentration (IC50) in the assay with Gli-luciferase activity (setting [3]) was 100 to 1000 nM; with Gli-luciferase activity (setting [4]), below 100 nM; in assay [1], below 100 nM; in assay [2] it was below 100 nM.
In the case of `CC(O)(CN1CCC(O)CC1)c1cnc(N2CCN(c3nnc(Cc4ccccc4)c4ccccc34)CC2)cn1` (stereo not drawn) [Example 170, 1-{2-[4-(4-Benzyl-phthalazin-1-yl)-3,4,5,6-tetrahydro-2H-[1,2′]bipyrazinyl-5′-yl]-2-hydroxy-propyl}-piperidin-4-ol], the IC50 was 100 to 1000 nM in the assay with Gli-luciferase activity (setting [3]), below 100 nM in the assay on Gli-luciferase activity (setting [4]), 100 to 1000 nM in assay [1] and 100 to 1000 nM in assay [2].
`O=C(Cc1ccc(N2CCN(c3nnc(Cc4ccccc4)c4ccccc34)CC2)nc1)N1CCCC1` [Example 171, 2-{6-[4-(4-Benzyl-phthalazin-1-yl)-piperazin-1-yl]-pyridin-3-yl}-1-pyrrolidin-1-yl-ethanone]: the IC50 with Gli-luciferase activity (setting [3]) was 100 to 1000 nM; in the assay on Gli-luciferase activity (setting [4]), below 100 nM; in assay [1], below 100 nM; in assay [2], below 100 nM.
Turning to `CC(C)(O)Cc1ccc(N2CCN(c3nnc(Cc4ccccc4)c4ccccc34)CC2)nc1` [Example 172, 1-{6-[4-(4-Benzyl-phthalazin-1-yl)-piperazin-1-yl]-pyridin-3-yl}-2-methyl-propan-2-ol], the IC50 (in the assay with Gli-luciferase activity (setting [3]); in the assay on Gli-luciferase activity (setting [4]); in assay [1]; in assay [2]) was below 100 nM each time.
With `Cc1ccc(Cc2nnc(N3CCN(c4ccc(C#N)cn4)CC3)c3ccccc23)cc1` [Example 173], the IC50 was 100 to 1000 nM in the assay with Gli-luciferase activity (setting [3]), below 100 nM in the assay on Gli-luciferase activity (setting [4]), below 100 nM in assay [1] and below 100 nM in assay [2].
For `N#Cc1ccc(N2CCN(c3nnc(Cc4ccccc4Cl)c4ccccc34)CC2)nc1` [Example 174], the IC50 in the assay on Gli-luciferase activity (setting [3]) is 1000 to 10000 nM; in the assay on Gli-luciferase activity (setting [4]), below 100 nM; in assay [1], 100 to 1000 nM; in assay [2], 100 to 1000 nM.
Regarding `COc1ccccc1Cc1nnc(N2CCN(c3ccc(C#N)cn3)CC2)c2ccccc12` [Example 175], the IC50 is 1000 to 10000 nM in the assay on Gli-luciferase activity (setting [3]), 100 to 1000 nM with Gli-luciferase activity (setting [4]), 1000 to 10000 nM in assay [1] and 100 to 1000 nM in assay [2].
Take `N#Cc1ccc(N2CCN(c3nnc(Cc4ccc(Cl)c(Cl)c4)c4ccccc34)CC2)nc1` [Example 176]: the IC50 in the assay on Gli-luciferase activity (setting [3]) lay in the range of 1000 to 10000 nM; with Gli-luciferase activity (setting [4]), 100 to 1000 nM; in assay [1], 100 to 1000 nM; in assay [2], 100 to 1000 nM.
Regarding `N#Cc1ccc(N2CCN(c3nnc(Cc4ccc(Cl)cc4Cl)c4ccccc34)CC2)nc1` [Example 177], the IC50 was 100 to 1000 nM with Gli-luciferase activity (setting [3]), 100 to 1000 nM in the assay on Gli-luciferase activity (setting [4]), below 100 nM in assay [1] and below 100 nM in assay [2].
For `N#Cc1ccc(N2CCN(c3nnc(Cc4ccc(Cl)c(C(F)(F)F)c4)c4ccccc34)CC2)nc1` [Example 178], the IC50 (in the assay with Gli-luciferase activity (setting [3]); in the assay on Gli-luciferase activity (setting [4]); in assay [1]; in assay [2]) was 100 to 1000 nM each time.
Regarding `COC(=O)c1ccc(Cc2nnc(N3CCN(c4ccc(C#N)cn4)CC3)c3ccccc23)cc1` [Example 179], the IC50 in the assay on Gli-luciferase activity (setting [3]) fell in the range of 10000 to 40000 nM; in the assay on Gli-luciferase activity (setting [4]), 100 to 1000 nM; in assay [1] it was 100 to 1000 nM; in assay [2] it was 100 to 1000 nM.
Regarding `N#Cc1ccc(N2CCN(c3nnc(Cc4ccc(C(=O)O)cc4)c4ccccc34)CC2)nc1` [Example 180], the IC50 in the assay with Gli-luciferase activity (setting [3]) fell in the range of 10000 to 40000 nM; in the assay on Gli-luciferase activity (setting [4]), 1000 to 10000 nM; in assay [1] it was 10000 to 40000 nM; in assay [2], 10000 to 40000 nM.
On to `N#Cc1ccc(N2CCN(c3nnc(Cc4ccc(F)cc4)c4ccccc34)CC2)nc1` [Example 181], for which the concentration for half-maximal inhibition (IC50) is 100 to 1000 nM with Gli-luciferase activity (setting [3]), below 100 nM in the assay on Gli-luciferase activity (setting [4]), 100 to 1000 nM in assay [1] and below 100 nM in assay [2].
Regarding `N#Cc1ccc(N2CCN(c3nnc(Cc4cccc(F)c4)c4ccccc34)CC2)nc1` [Example 182], the IC50 (in the assay on Gli-luciferase activity (setting [3]); in the assay with Gli-luciferase activity (setting [4]); in assay [1]; in assay [2]) was 100 to 1000 nM throughout.
With `CCOC(=O)c1ccc(N2CCN(c3nnc(Cc4ccc(F)cc4)c4ccccc34)CC2)nc1` [Example 183], the IC50 in the assay with Gli-luciferase activity (setting [3]) was 1000 to 10000 nM; with Gli-luciferase activity (setting [4]), 100 to 1000 nM; in assay [1] it was below 100 nM; in assay [2], below 100 nM.
For the compound `CCOC(=O)c1ccc(N2CCN(c3nnc(Cc4ccccc4F)c4ccccc34)CC2)nc1` [Example 184], the IC50 with Gli-luciferase activity (setting [3]) was 100 to 1000 nM; in the assay on Gli-luciferase activity (setting [4]), 100 to 1000 nM; in assay [1] it was below 100 nM; in assay [2] it was below 100 nM.
Regarding `CCOC(=O)c1ccc(N2CCN(c3nnc(Cc4cccc(F)c4)c4ccccc34)CC2)nc1` [Example 185], the IC50 is 1000 to 10000 nM in the assay on Gli-luciferase activity (setting [3]), 100 to 1000 nM with Gli-luciferase activity (setting [4]), below 100 nM in assay [1] and below 100 nM in assay [2].

One may read the IC50 as the concentration that gives 50% inhibition.
